Measured values as given in patent publication US4479951A, “1.4;3.6-Dianhydrohexitol nitrates substituted by purine bases, processes for their preparation and pharmaceutical compositions” (Dr. Willmar Schwabe GmbH & Co., priority 1980, dated 1984).

Test system: isolated rat aorta preparations
Assay: spasmolytic effectiveness, noradrenaline-induced contractions
Conditions: read-out: ED50 noradrenaline spasm

Nc1ncnc2c1ncn2[C@H]1CO[C@H]2[C@@H]1OC[C@@H]2O[N+](=O)[O-] [1c/2c, 5-(9-Adenyl)-5-desoxy-1.4;3.6-dianhydro-L-iditol 2-nitrate]
IC50: 135 nM
